Data as given in publication PMC6753678, “Fueling Open Innovation for Malaria Transmission-Blocking Drugs: Hundreds of Molecules Targeting Early Parasite Mosquito Stages” (Frontiers in Microbiology, 2019).
Where two headings read alike, the source gives them in different places.

Legend:
[1] = system: 3D7-strain P. falciparum asexual parasites; assay: P. falciparum asexual growth inhibition assay (Pf GIA); format: cell-based, Plasmodium falciparum; details: dose response confirmation; read-out: Pf asexual growth inhibition assays IC50
Method in brief: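 0.25% parasitemia, 2% Hct, RPMI/HEPES/hypoxanthine/5% Albumax; compound dose response, 72 h, 37°C, 5% CO2, 5% O2, 90% N2. Freeze-thaw, then LDH assay, A650. % inhibition vs chloroquine (50 μM)/DMSO, mean of 3 independent runs.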

HepG2 cells = assay: HepG2 cytotoxicity assay; details: for IC50: read-out: HepG2 cytotoxicity assay IC50, dose response confirmation; for Pb ODA (this manuscript) HepG2 cytoxicity: HepG2 cytotoxicity listed with the Pb ODA data set (this manuscript)
Method in brief: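 Here viability after a 48 h compound incubation (37°C, humidified 5% CO2) is measured by fluorescence and expressed as percent inhibition, with doxorubicin at 50 μM and DMSO as the bounding controls.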

[2] = system: P. berghei ookinete development; details: for % inhibition, Replicate A / % inhibition, Replicate B: primary screen at 1 μM
[3] = HepG2 values of the three screens unified
[4] = read-out: Pb ODA IC50, this manuscript
[5] = read-out: Pb Ookinete development assay IC50, dose response confirmation
[6] = read-out: Pb ODA (this manuscript) IC50, P. berghei ookinete development assay, this manuscript
[7] = unified HepG2 value across the three screens

Compound | IC50 [1] [µM] | HepG2 cytoxicity (Pb ODA, this manuscript) (HepG2 cells) [µM] | Unified cytotox (HepG2 cells; [3]) [µM] | IC50 (HepG2 cells) [µM] | Is compound selective in assay? Pb ODA active? ([2]; 1: YES, 0: NO) | % inhibition, Replicate A [2] [%] | % inhibition, Replicate B [2] [%] | IC50 [2, 4] [µM] | IC50 [2, 5] [µM] | Pb ODA (this manuscript) HepG2 cytoxicity (HepG2 cells) [µM] | Is compound selective in assay? Pb ODA active? [2] | IC50 [2, 6] [µM] | Unified cytotox (HepG2 cells; [7]) [µM]
COc1ccc(Cn2ccc3c4c(N)nc(N)nc4ccc32)cc1 [TCMDC-139862] | < 0.0002 | 0.011 | 0.011 | 0.011 | 0 (0: NO) | 43.74 | 74.79 | 0.32 | 0.315 | – | – | – | –
COc1ccc2nccc([C@@H](O)CN3CCC(NCCOc4cc(C(F)(F)F)ccc4F)CC3)c2c1.O=C(O)C(=O)O [TCMDC-140658] | 0.035 | 0.00343 | 0.00343 | 0.00343 | 0 (0: NO) | 63.44 | 46.33 | 3.21 | 3.21 | – | – | – | –
COc1ccc2nccc([C@@H](O)CN3CCC(NCCOc4ccc(F)cc4Cl)CC3)c2c1.O=C(O)C(=O)O [TCMDC-140660] | 0.173 | 32.36 | 32.36 | 32.4 | 0 (0: NO) | 30.16 | 50.20 | 8.29 | 8.29 | – | – | – | –
COc1cc(-c2nc(C(C)(C)CN)[nH]c2-c2ccncc2)ccc1Br.Cl [TCMDC-140674] | 3.12 | – | – | 39.8 | – | 75.42 | 38.48 | – | 1.32 | 39.81 | 1 (key: 1: YES; 0: NO) | 1.32 | –
COc1cccc(CNCC(C)(C)c2nc(-c3ccc(Cl)c(O)c3)c(-c3ccncc3)[nH]2)c1.Cl [TCMDC-140687] | 0.759 | – | – | 5.01 | – | 13.26 | 51.15 | – | 3.74 | 5.01 | 0 (key: 1: YES; 0: NO) | 3.74 | –
COc1ccc2nccc([C@@H](O)CN3CCC(NCc4cc5ccc(C#N)cc5[nH]4)CC3)c2c1.O=C(O)C(=O)O [TCMDC-140696] | 0.168 | 1.55 | 1.55 | 1.55 | 0 (0: NO) | 54.58 | 89.62 | 1.88 | 1.88 | – | – | – | –
COc1ccc2nccc([C@@H](O)CN3CCC(NCc4cc5c(F)ccc(F)c5[nH]4)CC3)c2c1.O=C(O)C(=O)O [TCMDC-140739] | 0.098 | 14.79 | 14.79 | 14.8 | 0 (0: NO) | 18.82 | 50.21 | 2.79 | 2.79 | – | – | – | –
COc1ccc2nccc([C@@H](O)CN3CCC(NC(=O)c4ccc5cc[nH]c5c4)CC3)c2c1.CS(=O)(=O)O [TCMDC-140743] | 1.13 | – | 100.00 | 100 | 1 (1: YES) | 89.95 | 58.25 | 0.46 | 0.459 | – | – | – | –
COc1ccc2nccc([C@@H](O)CN3CCC(NCc4cc5c(F)ccc(F)c5[nH]4)CC3)c2n1.CS(=O)(=O)O [TCMDC-140749] | 0.13 | – | – | 14.1 | – | 52.78 | 27.90 | – | 3.27 | 14.13 | 0 (key: 1: YES; 0: NO) | 3.27 | –
COc1ccc2nccc([C@@H](O)CN3CCC(NCc4cc5ccccc5nc4O)CC3)c2c1.Cl [TCMDC-140759] | 0.431 | 48.98 | 48.98 | 49 | 1 (1: YES) | 50.79 | 52.50 | 2.01 | 2.01 | – | – | – | –
O=C(NCc1ccco1)c1ccc(CN2CCN(C(c3ccccc3)c3ccccc3)CC2)cc1 [TCMDC-140763] | 1.26 | – | – | 52.5 | 1 (1: YES) | 50.96 | 28.39 | 1.48 | 1.48 | – | – | – | 52.48
COc1ccc2nccc([C@@H](O)CN3CCC(NC(=O)c4cc5ccccc5[nH]4)CC3)c2c1.CS(=O)(=O)O [TCMDC-140780] | 0.94 | 50.70 | 50.70 | 50.7 | 1 (1: YES) | 48.77 | 68.59 | 0.24 | 0.239 | – | – | – | –
COc1ccc2nccc([C@@H](O)CN3CCC(NC(=O)c4cc5c(F)cc(F)cc5[nH]4)CC3)c2c1.CS(=O)(=O)O [TCMDC-140781] | 0.301 | 11.22 | 11.22 | 11.2 | 1 (1: YES) | 60.81 | 64.63 | 1 | 1 | – | – | – | –
COc1ccc2nccc([C@@H](O)CN3CCC(NCc4ccc5c(c4)NC(=O)CO5)CC3)c2c1.Cl [TCMDC-140793] | 0.721 | – | – | 28.2 | – | 51.85 | 48.48 | – | 3.63 | 28.18 | 0 (key: 1: YES; 0: NO) | 3.63 | –
COc1ccc2nccc([C@@H](O)CN3CCC(NC(=O)/C=C/c4c[nH]c5c(C)cccc45)CC3)c2c1 [TCMDC-141000] | 0.433 | 51.29 | 51.29 | 51.3 | 1 (1: YES) | 72.27 | 60.86 | 1.9 | 1.9 | – | – | – | –
CN(C)CCN(C)C(=O)c1cc(-c2ccncc2)c(-c2ccc(Cl)c(O)c2)o1.Cl [TCMDC-141393] | 2.49 | – | – | 53.7 | 1 (1: YES) | 35.76 | 53.63 | 1.75 | 1.75 | – | – | – | 53.70
COc1ccc2nccc(NC(=O)C3(O)CCC(NCc4ccc5c(c4)NCCS5)CC3)c2n1.Cl (stereo not shown) [TCMDC-141406] | 1.04 | – | – | 24.3 | – | 91.89 | 114.20 | – | 0.347 | 24.27 | 1 (key: 1: YES; 0: NO) | 0.35 | –
CCN(CC)CCCNc1nccc(N(C)c2ccc(NC(=O)Nc3cc(C(F)(F)F)ccc3F)cc2)n1.O=C(O)C(F)(F)F [TCMDC-141634] | 0.811 | – | – | 2.75 | 0 (0: NO) | 55.58 | 13.78 | 9.02 | 9.02 | – | – | – | 2.75
COc1ccc2ncc(Cl)c(CCN3CCC(NCc4ccc5c(n4)NC(=O)CS5)CC3)c2c1.Cl [TCMDC-141807] | 0.379 | 15.49 | 15.49 | 15.5 | 1 (1: YES) | 68.31 | 67.95 | 1.34 | 1.34 | – | – | – | –
COc1ccc2ncc(Cl)c(CCN3CCC(NCc4ccc5c(n4)NC(=O)CO5)CC3)c2c1.Cl [TCMDC-141808] | 0.014 | – | – | 1.29 | – | 43.21 | 70.93 | – | 1.22 | 1.29 | 0 (key: 1: YES; 0: NO) | – | –
COc1ccc2nccc(N3CCC(CCNCc4ccc5c(n4)NC(=O)CS5)CC3)c2n1.Cl [TCMDC-141944] | 0.16 | 14.79 | 14.79 | 14.8 | 0 (0: NO) | 58.34 | 37.24 | 8.88 | 8.88 | – | – | – | –
COc1c(F)ccc2ncc(Cl)c(CCN3CCC(NCc4ccc5c(n4)NC(=O)CS5)CC3)c12.Cl [TCMDC-141955] | 1.19 | 23.99 | 23.99 | 24 | 1 (1: YES) | 54.74 | 63.10 | 1.9 | 1.9 | – | – | – | –
